Where two headings read alike, the source gives them in different places.
Experiments:
HIV-IIIb = assay: Test A: Antiviral Assay in MT4 Cells; type: cell-based, HIV-1; conditions: for inhibition at 0.2 µM / inhibition at 2 µM: Human immunodeficiency virus 1, IIIB, comparison with previously published compounds (WO 2013/006738); for inhibition at 0.2 µM: MT4, read-out: Response at 0.2 μM (percent inhibition of virus-induced cell killing), 0.2 μM; for inhibition at 2 µM: MT4, read-out: Response at 2 μM (percent inhibition of virus-induced cell killing), 2 μM; for % inhibition at 0.2 μM (percent inhibition of virus-induced cell killing): 0.2 μM drug concentration; for % inhibition at 0.2 μM (percent inhibition of virus-induced cell killing) / % inhibition at 2 μM (percent inhibition of virus-induced cell killing): MT-4 cells infected with HIV-IIIb, 5 days, calculated from the dose response curve, values above 100 normalized to 100%; for % inhibition at 2 μM (percent inhibition of virus-induced cell killing): 2 μM drug concentration
Experimental: Test A: Antiviral Assay in MT4 Cells
(§1) MT-4 cells were next mixed with HIV-IIIb at an m.o.i of 0.003 for 1 hour, after which time 35 μL of virus/cell mixture (2000 cells) was immediately added to each well containing 40 μL of diluted compound. The plates were then incubated at 37° C. for 5 days. […] Cell lysis was carried out by incubating at room temperature for 10 min and then chemiluminescence was read.
The data above represent an average over time of each assay for each compound. […] Thus, the data reported in the tables include the data reported in the priority document, as well as data from assays run in the intervening period.

uninfected MT-4 cells = assay: Test B: Cytotoxicity Assay; type: cell-based
Experimental: as §1
Test B: Cytotoxicity Assay
Compound cytotoxicity and the corresponding CC50 values was determined using the same protocol as described in the antiviral assay (Test A) except that uninfected cells were used.

[1] = uninfected MT-4 cells, same protocol as Test A, 5 days, read-out: CC50

SMILES | inhibition at 0.2 µM (HIV-IIIb) | inhibition at 2 µM (HIV-IIIb) | % inhibition at 0.2 μM (percent inhibition of virus-induced cell killing) (HIV-IIIb) | % inhibition at 2 μM (percent inhibition of virus-induced cell killing) (HIV-IIIb) | CC50 (uninfected MT-4 cells; [1]) | CC50 (uninfected MT-4 cells)
CC(C)(O)C#Cc1ccc(-c2ccc(F)c(C(N)=O)c2)c([C@H](Cc2cc(F)cc(F)c2)NC(=O)Cn2nc(C(F)F)c3c2C(F)(F)CCC3(F)F)n1 | 71% | 84% |  |  |  | 
NC(=O)c1cc(-c2ccc(-c3ccc(F)c(C(N)=O)c3)c([C@H](Cc3cc(F)cc(F)c3)NC(=O)Cn3nc(C(F)F)c4c3C(F)(F)CCC4(F)F)n2)ccc1F | 3% | 58% |  |  |  | 
CC(C)(O)C#Cc1ccc(-c2ccc(F)c(C(N)=O)c2)c([C@H](Cc2cc(F)cc(F)c2)NC(=O)Cn2nc(C(F)(F)F)c3c2C(F)(F)[C@@H]2C[C@H]32)n1 | 96% | 90% |  |  |  | 
CC(C)(O)C#Cc1ccc(-c2cccc3c2CNC3=O)c([C@H](Cc2cc(F)cc(F)c2)NC(=O)Cn2nc(C(F)(F)F)c3c2C(F)(F)[C@@H]2C[C@H]32)n1 [Compound 15, 2-((3bS,4aR)-5,5-difluoro-3-(trifluoromethyl)-3b,4,4a,5-tetrahydro-1H-cyclopropa[3,4]cyclopenta[1,2-c]pyrazol-1-yl)-N—((S)-2-(3,5-difluorophenyl)-1-(6-(3-hydroxy-3-methylbut-1-yn-1-yl)-3-(1-oxoisoindolin-4-yl)pyridin-2-yl)ethyl)acetamide] |  |  | 93% | 94% | 10.3 µM | 
Cn1nc(N)c2c(Cl)ccc(-c3ccc(C#CC(C)(C)O)nc3[C@H](Cc3cc(F)cc(F)c3)NC(=O)Cn3nc(C(F)(F)F)c4c3C(F)(F)[C@@H]3C[C@H]43)c21 [Compound 55C] |  |  | 92% | 92% |  | 9.56 µM
Cn1nc(N)c2c(C#N)ccc(-c3ccc(C#CC(C)(C)O)nc3[C@H](Cc3cc(F)cc(F)c3)NC(=O)Cn3nc(C(F)F)c4c3C(F)(F)[C@@H]3C[C@H]43)c21 [Compound 77E] |  |  | 96% | 97% |  | 11.8 µM
CCNc1nn(C)c2c(-c3ccc(C#CC(C)(C)O)nc3[C@H](Cc3cc(F)cc(F)c3)NC(=O)Cn3nc(C(F)F)c4c3C(F)(F)[C@@H]3C[C@H]43)ccc(Cl)c12 [Compound 91E] |  |  | 100% | 100% |  | 9.38 µM
CC(C)(O)C#Cc1ccc(-c2ccc3nnc(N)n3c2)c([C@H](Cc2cc(F)cc(F)c2)NC(=O)Cn2nc(C(F)F)c3c2C(F)(F)[C@@H]2C[C@H]32)n1 [Compound 105E] |  |  |  | 74% |  | 31.5 µM
CC(C)(O)C#Cc1ccc(-c2ccc(Cl)n3c(N)nnc23)c([C@H](Cc2cc(F)cc(F)c2)NC(=O)Cn2nc(C(F)F)c3c2C(F)(F)[C@@H]2C[C@H]32)n1 [Compound 106E] |  |  | 95% | 96% |  | 12.4 µM
CC(C)(O)C#Cc1ccc(-c2ccc(Cl)n3c(NS(C)(=O)=O)nnc23)c([C@H](Cc2cc(F)cc(F)c2)NC(=O)Cn2nc(C(F)F)c3c2C(F)(F)[C@@H]2C[C@H]32)n1 [Compound 110E] |  |  | 15% | 98% |  | > 53.2 µM
COc1ccc(-c2ccc(C#CC(C)(C)O)nc2[C@H](Cc2cc(F)cc(F)c2)NC(=O)Cn2nc(C(F)F)c3c2C(F)(F)[C@@H]2C[C@H]32)c2c1c(N)nn2C [Compound 114G] |  |  | 100% | 100% |  | 14.8 µM
Cc1nc(NS(C)(=O)=O)c2cccc(-c3ccc(C#CC(C)(C)O)nc3[C@H](Cc3cc(F)cc(F)c3)NC(=O)Cn3nc(C(F)F)c4c3C(F)(F)[C@@H]3C[C@H]43)n12 [Compound 120H, 2-((3bS,4aR)-3-(difluoromethyl)-5,5-difluoro-3b,4,4a,5-tetrahydro-1H-cyclopropa[3,4]cyclopenta[1,2-c]pyrazol-1-yl)-N—((S)-2-(3,5-difluorophenyl)-1-(6-(3-hydroxy-3-methylbut-1-yn-1-yl)-3-(3-methyl-1-(methylsulfonamido)imidazo[1,5-a]pyridin-5-yl)pyridin-2-yl)ethyl)acetamide] |  |  |  |  | 11.7 µM | 
Cn1nc(NS(C)(=O)=O)c2c(Cl)ccc(-c3ccc(C#CC(C)(C)N)nc3[C@H](Cc3cc(F)cc(F)c3)NC(=O)Cn3nc(C(F)F)c4c3C(F)(F)[C@@H]3C[C@H]43)c21 [Compound 127, N—((S)-1-(6-(3-amino-3-methylbut-1-yn-1-yl)-3-(4-chloro-1-methyl-3-(methylsulfonamido)-1H-indazol-7-yl)pyridin-2-yl)-2-(3,5-difluorophenyl)ethyl)-2-((3bS,4aR)-3-(difluoromethyl)-5,5-difluoro-3b,4,4a,5-tetrahydro-1H-cyclopropa[3,4]cyclopenta[1,2-c]pyrazol-1-yl)acetamide] |  |  |  |  | 8.76 µM | 
Cn1nc(NS(C)(=O)=O)c2c(Cl)ccc(-c3ccc(C#CC(C)(C)N)nc3[C@H](Cc3cc(F)cc(F)c3)NC(=O)Cn3nc(C(F)F)c4c3C(F)(F)[C@@H]3C[C@H]43)c21 [Compound 128B, N—((S)-1-(6-(3-amino-3-methylbut-1-yn-1-yl)-3-(4-chloro-1-methyl-3-(methylsulfonamido)-1H-indazol-7-yl)pyridin-2-yl)-2-(3,5-difluorophenyl)ethyl)-2-((3bS,4aR)-3-(difluoromethyl)-5,5-difluoro-3b,4,4a,5-tetrahydro-1H-cyclopropa[3,4]cyclopenta[1,2-c]pyrazol-1-yl)acetamide] |  |  | 93% | 94% | 4.18 µM | 
C#Cc1ccc(-c2ccc(Cl)c3cnn(C)c23)c([C@H](Cc2cc(F)cc(F)c2)NC(=O)Cn2nc(C(F)F)c3c2C(F)(F)[C@@H]2C[C@H]32)n1 [Compound 136D, N—((S)-1-(3-(4-chloro-1-methyl-1H-indazol-7-yl)-6-ethynylpyridin-2-yl)-2-(3,5-difluorophenyl)ethyl)-2-((3bS,4aR)-3-(difluoromethyl)-55-difluoro-3b,4,4a,5-tetrahydro-1H-cyclopropa[3,4]cyclopenta[1,2-c]pyrazol-1-yl)acetamide] |  |  |  |  |  | 7.43 µM
Cn1nc(NS(C)(=O)=O)c2c(Cl)ccc(-c3ccc(C#CC(C)(C)O)nc3[C@H](Cc3cc(F)cc(F)c3)NC(=O)Cn3nc(N)c4c3C(F)(F)[C@@H]3C[C@H]43)c21 [Compound 148B, 2-((3bS,4aR)-3-amino-5,5-difluoro-3b,4,4a,5-tetrahydro-H-cyclopropa[3,4]cyclopenta[1,2-c]pyrazol-1-yl)-N—((S)-1-(3-(4-chloro-1-methyl-3-(methylsulfonamido)-1H-indazol-7-yl)-6-(3-hydroxy-3-methylbut-1-yn-1-yl)pyridin-2-yl)-2-(3,5-difluorophenyl)ethyl)acetamide] |  |  | 83% | 83% |  | 23.3 µM
Cn1nc(NS(C)(=O)=O)c2c(Cl)ccc(-c3ccc(C#CC(C)(C)O)nc3[C@H](Cc3cc(F)cc(F)c3)NC(=O)Cn3nc(Cl)c4c3C(F)(F)[C@@H]3C[C@H]43)c21 [Compound 149, N—((S)-1-(3-(4-chloro-1-methyl-3-(methylsulfonamido)-1H-indazol-7-yl)-6-(3-hydroxy-3-methylbut-1-yn-1-yl)pyridin-2-yl)-2-(3,5-difluorophenyl)ethyl)-2-((3bS,4aR)-3-chloro-5,5-difluoro-3b,4,4a,5-tetrahydro-1H-cyclopropa[3,4]cyclopenta[1,2-c]pyrazol-1-yl)acetamide] |  |  |  |  | 26.7 µM | 
Cn1nc(NS(C)(=O)=O)c2c(Cl)ccc(-c3ccc(C#CC(C)(C)O)nc3[C@H](Cc3cc(F)cc(F)c3)NC(=O)Cn3ncc4c3C(F)(F)[C@@H]3C[C@H]43)c21 [Compound 150, N—((S)-1-(3-(4-chloro-1-methyl-3-(methylsulfonamido)-1H-indazol-7-yl)-6-(3-hydroxy-3-methylbut-1-yn-1-yl)pyridin-2-yl)-2-(3,5-difluorophenyl)ethyl)-2-((3bS,4aR)-5,5-difluoro-3b,4,4a,5-tetrahydro-1H-cyclopropa[3,4]cyclopenta[1,2-c]pyrazol-1-yl)acetamide] |  |  |  |  | 28.9 µM | 
Cn1nc(NS(C)(=O)=O)c2c(Cl)ccc(-c3ccc(C#CC(C)(C)O)nc3[C@H](Cc3cc(F)cc(F)c3)NC(=O)Cn3nc(C4(O)CC4)c4c3CCCC4)c21 [Compound 156E, (S)—N-(1-(3-(4-chloro-1-methyl-3-(methylsulfonamido)-1H-indazol-7-yl)-6-(3-hydroxy-3-methylbut-1-yn-1-yl)pyridin-2-yl)-2-(3,5-difluorophenyl)ethyl)-2-(3-(1-hydroxvcyclopropyl)-4,5,6,7-tetrahydro-1H-indazol-1-yl)acetamide] |  |  | 78% | 78% |  | 25.6 µM
Cn1nc(NS(=O)(=O)C(F)(F)F)c2c(Cl)ccc(-c3ccc(C#CC(C)(C)O)nc3[C@H](Cc3cc(F)cc(F)c3)NC(=O)Cn3nc(C(F)F)c4c3C(F)(F)[C@@H]3C[C@H]43)c21 [Compound 171D] |  |  |  |  |  | > 42.5 µM

— patent publication US9951043B2, “Therapeutic compounds” (Gilead Sciences, Inc., priority 2013, dated 2018)
